Data from US20040224031A1, “Combination of amines and vanadium (IV)/(V) compounds for the treatment and/or prevention of diabetes mellitus” (priority 2003, published 2004).

How the values were obtained:
isolated rat adipocytes = assay: Hexose transport (2-deoxyglucose uptake) in isolated rat adipocytes; assay type: cell-based; design: stimulation of 2-deoxyglucose uptake, agent alone: dose or concentration left out as unconfirmed; settings: for glucose transport (2-DG uptake): 45 min preincubation of fat cells with increasing concentrations; for stimulation of 2-deoxyglucose uptake, agent alone: benzylamine or orthovanadate alone, 10-min uptake
Method: Adipocyte isolation. […] Adipose cells isolated in such a way were used in subsequent studies.
Hexose transport. After a preincubation period of 45 min at 37° C. in vials containing 400 μl of cell suspension in KRBH with the tested products, [^3H]-2-deoxyglucose was added at a final concentration of 0.1 mM (approx. 1,300,000 d.p.m./vial). […] After centrifugation, the fat cells (upper part of the tubes) were placed in scintillation vials and the incorporated radioactivity was counted.

GLUT4 = system: GLUT4; design: increase in the abundance of GLUT4 in plasma membrane preparations / abundance of GLUT4 in plasma membranes, agent alone: dose or concentration left out as unconfirmed; settings: for amount of GLUT4 protein in the plasma membrane (PM): n=3, orthovanadate 0.1 mM; for abundance of GLUT4 in plasma membranes, agent alone: benzylamine or orthovanadate alone
Method: To verify whether the stimulation of glucose transport in rat adipocytes may be explained by a translocation of the insulin-sensitive glucose transporters from an internal site to the plasma membrane, as it is known for insulin, the amount of GLUT4 protein was determined in plasma membrane (PM) and low density microsome (LDM) fractions.

[1] = system: streptozotocin-induced diabetic rats; assay: Chronic administration in streptozotocin-induced diabetic rats; assay type: in vivo, rat; settings: for food and water consumption / weight of epididymal adipose tissue (adiposity): chronic treatment of diabetic rats
Text: A group of animals was also subjected to daily i.p. injection of vanadate (50 μmol/kg body wt) for two weeks.
In other studies, rats were daily injected intraperitoneally with 25 μmol/kg vanadate for the first week and with 50 μmol/kg for the second week.

[2] = vanadate i.p. 25 μmol/kg first week and 50 μmol/kg second week, benzylamine 84 μmol/kg, FIG. 6, FIG. 7
[3] = 1 mM H2O2, preincubation 45 min, n=23

With `NCCc1c[nH]c2ccc(O)cc12` [serotonin] the “glucose transport (2-DG uptake)” value (isolated rat adipocytes; 5-min 2-DG uptake, FIG. 1) was “not activated”.

For `NNC(N)=O` [semicarbazide], the “effect on glucose transport stimulated by 1 mM hydrogen peroxide plus 0.1 mM orthovanadate” value (isolated rat adipocytes) was “unaffected”, the inhibition at 100 µM (isolated rat adipocytes; Rattus norvegicus, Adipocyte, read-out: inhibition of the glucose transport promoted by 1 mM tyramine plus orthovanadate) was 59 ± 7% and the “effect on stimulation of 2-deoxyglucose uptake by benzylamine and orthovanadate” value (isolated rat adipocytes; semicarbazide (1 mM), FIG. 3) was “abolished”.

“insulin: hormone used as positive control for glucose transport and GLUT4 translocation” was tested, and the “GLUT4 abundance in light microsomes” value (GLUT4) was “reduction”, the “increase in the abundance of GLUT4 in plasma membrane preparations” value (GLUT4; 45 minutes incubation) was 3.3 fold and the “content of β1-integrin, a constitutive PM protein” value (GLUT4; Example 2, plasma membrane fraction) was “without any significant change”. For the same compound, the “plasma membrane marker β1-integrin” value (GLUT4; Example 4, 45 minutes incubation) was “remained unaltered”, the “decrease of basal GLUT4 content of LDM” value (GLUT4; Western blot, low density microsomes) was 29% and the “amount of GLUT4 protein in the plasma membrane (PM)” value (GLUT4; Western blot) was 252±43%. The “increase of basal 2-DG uptake” value (isolated rat adipocytes; insulin, 45 min preincubation, 5-min 2-DG uptake, FIG. 1) was “twelve-fold”.

In the case of `CNC[C@H](O)c1cccc(O)c1` [phenylephrine], the “glucose transport (2-DG uptake)” value (isolated rat adipocytes; 5-min 2-DG uptake, FIG. 1) is reported as “not activated”.

In the case of sodium orthovanadate, the “food and water consumption” value [1] is reported as “not detected”, the “weight of epididymal adipose tissue (adiposity)” value [1] is reported as “not detected” and the glycemia ([1]; vanadate 50 μmol/kg daily i.p. for two weeks, benzylamine 84 μmol/kg/day by osmotic minipumps, FIG. 5) is reported as “moderate reduction”. The glycemia [1, 2] was “remained hyperglycemic”, the “abundance of GLUT4 in plasma membranes, agent alone” value (GLUT4; 45 minutes incubation) was “did not alter” and the “amount of GLUT4 protein in the plasma membrane (PM)” value (GLUT4; Western blot) was 103±8%. The “stimulation of glucose transport as % of that of 100 nM insulin” value (isolated rat adipocytes; 1 mM tyramine, 0.1 mM orthovanadate, 100 nM insulin, n=40) was 5±1%, the “stimulation of 2-deoxyglucose uptake, agent alone” value (isolated rat adipocytes; FIG. 3) was “did not stimulate” and the “effect on basal or insulin-stimulated glucose transport” value (isolated rat adipocytes; orthovanadate alone 0.1 mM, FIG. 2) was “did not affect”.

With `NCCc1ccc(O)cc1` [tyramine] the “glucose transport (2-DG uptake)” value (isolated rat adipocytes; 5-min 2-DG uptake, FIG. 1) was “not activated” and the “synergism on glucose transport with low, ineffective doses of insulin (10 pM) or hydrogen peroxide (0.01 mM)” value (isolated rat adipocytes; not shown) was “no synergism”.

For `NCc1ccccc1` [benzylamine], the “food and water consumption” value [1] was “not detected”, the “weight of epididymal adipose tissue (adiposity)” value [1] was “not detected” and the glycemia [1, 2] was “remained hyperglycemic”. The “abundance of GLUT4 in plasma membranes, agent alone” value (GLUT4; 45 minutes incubation) was “did not alter” and the “stimulation of 2-deoxyglucose uptake, agent alone” value (isolated rat adipocytes; FIG. 3) was “no stimulatory effect”.

For `OO` [H2O2, hydrogen peroxide], the “effect relative to the maximal insulin effect” value (isolated rat adipocytes; [3]) was 46%, the “factor multiplying basal hexose transport” value (isolated rat adipocytes; [3]) was 5.0±0.8 fold and the “glucose transport (2-DG uptake)” value (isolated rat adipocytes; 5-min 2-DG uptake, FIG. 1) was “dose-dependently stimulated”.
